In this experiment the target is EGFR (human) (UniProt P00533). The settings on record: a431.

Converted amounts (≈) assume the structure as drawn.

EGFR (human), sequence (P00533 whole entry, looked up): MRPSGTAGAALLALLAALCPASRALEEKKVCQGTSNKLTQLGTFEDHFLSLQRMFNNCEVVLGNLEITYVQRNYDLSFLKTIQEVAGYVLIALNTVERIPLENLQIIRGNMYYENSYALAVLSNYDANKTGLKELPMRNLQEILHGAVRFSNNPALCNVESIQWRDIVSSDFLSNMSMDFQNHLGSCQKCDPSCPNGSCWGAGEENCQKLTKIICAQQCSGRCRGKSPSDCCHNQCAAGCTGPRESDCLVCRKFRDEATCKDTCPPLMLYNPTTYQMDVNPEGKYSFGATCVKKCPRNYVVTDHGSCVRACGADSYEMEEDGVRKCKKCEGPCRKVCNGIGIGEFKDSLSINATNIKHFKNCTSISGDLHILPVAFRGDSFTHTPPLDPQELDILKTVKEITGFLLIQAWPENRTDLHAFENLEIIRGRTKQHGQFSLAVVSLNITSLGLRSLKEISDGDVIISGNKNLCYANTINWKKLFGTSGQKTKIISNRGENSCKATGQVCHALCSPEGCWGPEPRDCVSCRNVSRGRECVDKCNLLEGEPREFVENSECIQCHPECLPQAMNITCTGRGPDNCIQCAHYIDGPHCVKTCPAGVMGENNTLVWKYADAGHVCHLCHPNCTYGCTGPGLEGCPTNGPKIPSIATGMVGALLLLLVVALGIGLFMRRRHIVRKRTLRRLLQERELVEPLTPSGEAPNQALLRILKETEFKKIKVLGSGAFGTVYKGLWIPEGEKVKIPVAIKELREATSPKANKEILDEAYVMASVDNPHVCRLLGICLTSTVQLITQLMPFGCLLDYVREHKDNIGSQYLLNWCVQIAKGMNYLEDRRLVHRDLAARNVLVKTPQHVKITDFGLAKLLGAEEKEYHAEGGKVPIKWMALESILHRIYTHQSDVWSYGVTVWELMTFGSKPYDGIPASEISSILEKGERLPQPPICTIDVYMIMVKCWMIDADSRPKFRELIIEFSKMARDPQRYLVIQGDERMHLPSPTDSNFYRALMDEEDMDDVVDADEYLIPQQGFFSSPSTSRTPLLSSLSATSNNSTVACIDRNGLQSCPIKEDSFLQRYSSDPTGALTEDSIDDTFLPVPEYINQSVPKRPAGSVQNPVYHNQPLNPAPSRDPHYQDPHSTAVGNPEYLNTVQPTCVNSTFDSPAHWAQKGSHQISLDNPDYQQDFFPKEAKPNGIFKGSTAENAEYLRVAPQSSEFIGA

For `COc1cc2ncc(C#N)c(Nc3ccc(N(Cc4cccnc4)C(C)=O)c(Cl)c3)c2cc1[N+](=O)[O-]`, the IC50 (commonly the concentration at which inhibition is half-maximal) amounted to 1.6 µg/mL (≈ 3.18 µM).

On to `COc1cc2ncc(C#N)c(Nc3ccc(Sc4nccn4C)c(Cl)c3)c2cc1NC(=O)/C=C/CN(C)C`, for which the IC50 was determined as 0.02 µg/mL (≈ 0.0365 µM).

For `CCOc1cc2ncc(C#N)c(Nc3ccc(Sc4nc(-c5ccccc5)cs4)c(C(F)(F)F)c3)c2cc1NC(=O)/C=C/CN(C)C`, the IC50 came out at 0.3 µg/mL (≈ 0.445 µM).

`COc1cc2ncc(C#N)c(Nc3ccc(Sc4nc5ccccc5c(=O)[nH]4)c(Cl)c3)c2cc1[N+](=O)[O-]` yielded an IC50 of 2.28 µg/mL (≈ 4.29 µM).

Regarding `CCOc1cc2ncc(C#N)c(Nc3ccc(Nc4nnc(C(F)(F)F)s4)c(Cl)c3)c2cc1NC(=O)/C=C/CN(C)C`, the IC50 is 0.728 µg/mL (≈ 1.18 µM).

Take `COc1cc2ncc(C#N)c(Nc3ccc(N(Cc4cccnc4)C(C)=O)c(Cl)c3)c2cc1N`: the IC50 is over 5 µg/mL.

`COc1cc2ncc(C#N)c(Nc3ccc(N(Cc4cccnc4)C(C)=O)c(Cl)c3)c2cc1NC(C)=O` displayed an IC50 of 3.68 µg/mL (≈ 7.15 µM).

`COc1cc2c(Nc3ccc4cn[nH]c4c3)c(C#N)cnc2cc1OCCCN1CCOCC1` returned an IC50 of over 5 µg/mL.

For the molecule `CCOc1cc2ncc(C#N)c(Nc3ccc(Nc4nnc(C(F)(F)F)s4)c(Cl)c3)c2cc1[N+](=O)[O-]`, the IC50 is 1.79 µg/mL (≈ 3.34 µM).

As to `COc1cc2ncc(C#N)c(Nc3ccc(-n4ccnc4)c(Cl)c3)c2cc1N`, the IC50 came to 1.63 µg/mL (≈ 4.17 µM). The IC50 values of the last two molecules are within 1.5-fold of each other.
